Several values for one entry are separate records, joined by “and”; a condition that tells them apart may be missing. Equal entries are not always repeated. Where two headings read alike, the source gives them in different places.
System: C. elegans
[1] = Table S2, C. elegans SS assay, 110 μM, 0 h, averages of 4 data points
[2] = Table S2, C. elegans SS assay, 110 μM, 24 h, averages of 4 data points

Compound	Percentage of motility inhibition 0 h [1]	Percentage of motility inhibition 24 h [2]	further results
CC1(C)[C@@H](O)CC[C@]2(C)[C@H]3CC=C4[C@@H]5C[C@@]6(C)C[C@H](OC6=O)[C@]5(C)CC[C@@]4(C)[C@]3(C)CC[C@@H]12 [Wilforlide A]	7%	3%	–
COc1c(O[C@@H]2O[C@H](C(=O)O)[C@@H](O)[C@H](O)[C@H]2O)cc(O)c2c(=O)cc(-c3ccccc3)oc12 [Wogonoside]	6%	2%	–
Cc1ccc(NC(=O)C(=O)NC2CC(C)(C)NC(C)(C)C2)cc1 [YYA‐021]	44%	39%	–
O.O=C(O)[C@@H]1[C@H]2C[C@H]3c4[nH]c5ccccc5c4CCN3C[C@@H]2CC[C@@H]1O [Yohimbic acid (hydrate)]	16%	0%	–
COC(=O)[C@@H]1[C@H]2C[C@H]3c4[nH]c5ccccc5c4CCN3C[C@@H]2CC[C@@H]1O.Cl [Yohimbine (Hydrochloride)]	24%	0%	–
C[C@H]1CC[C@@H]2N(C1)C[C@H]1[C@@H]3C[C@H]4[C@@H](CC(=O)[C@H]5C[C@H](O)CC[C@@]54C)[C@@H]3CC[C@H]1[C@]2(C)O [Yubeinine]	13%	0%	–
C[C@@H]1CC[C@@]2(OC1)O[C@H]1C[C@H]3[C@@H]4CC=C5C[C@@H](O[C@@H]6O[C@H](CO)[C@@H](O[C@@H]7O[C@H](CO)[C@@H](O)[C@H](O[C@@H]8O[C@H](CO)[C@@H](O)[C@H](O)[C@H]8O)[C@H]7O)[C@H](O)[C@H]6O[C@@H]6O[C@@H](C)[C@H](O)[C@@H](O)[C@H]6O)CC[C@]5(C)[C@H]4CC[C@]3(C)[C@H]1[C@@H]2C [Zingiberen Newsaponin]	0%	60%	–
C[C@@H]1CC[C@]2(C(=O)O)CC[C@]3(C)C(=CC[C@@H]4[C@@]5(C)CC[C@H](O[C@@H]6OC[C@H](O)[C@H](O)[C@H]6O)C(C)(C)[C@@H]5CC[C@]43C)[C@@H]2[C@]1(C)O [Ziyuglycoside II]	11%	14%	–
C[C@@H]1CC[C@]2(C(=O)O[C@@H]3O[C@H](CO)[C@@H](O)[C@H](O)[C@H]3O)CC[C@]3(C)C(=CC[C@@H]4[C@@]5(C)CC[C@H](O[C@@H]6OC[C@H](O)[C@H](O)[C@H]6O)C(C)(C)[C@@H]5CC[C@]43C)[C@@H]2[C@]1(C)O [Ziyuglycoside I]	0%	6%	–
C=C/C(C)=C/C=C/C(C)=C/C=C1/C(C)=CCCC1(C)C [all-trans-Anhydro Retinol]	61%	58%	–
C/C=C/c1cc(OC)c(OC)cc1OC [alpha-Asarone]	49%	29%	–
CC(C)=CCC[C@](C)(O)[C@@H]1CC=C(C)CC1 [alpha-Bisabolol]	1%	6%	–
CC1(C)CC[C@]2(C)CC[C@]3(C)C(=CC[C@@H]4[C@@]5(C)CC[C@@H](O)[C@](C)(C(=O)O)[C@@H]5CC[C@]43C)[C@@H]2C1 [alpha-Boswellic acid]	34%	28%	–
COc1cc2oc3cc(O)c(OC)c(CC=C(C)C)c3c(=O)c2c(O)c1CC=C(C)C [beta‐Mangostin]	30%	0%	–
C=C(C)[C@H]1C=C[C@@](C)(O)CC1 [cis-Isolimonenol]	2%	30%	–
CC/C=C\CC1=C(C)CCC1=O [cis‐Jasmone]	10%	9%	–
S=C=Nc1ccc(N=C=S)cc1 [p‐Phenylene diisothiocyanate]	2%	9%	–
CNCC(O)c1ccc(O)cc1 (stereo not shown) [p‐Synephrine]	13%	0%	–
C/C(=C\CNc1ncnc2c1ncn2[C@@H]1O[C@H](CO)[C@@H](O)[C@H]1O)CO [trans‐Zeatinriboside]	9%	0%	–

Compound	Percentage of motility inhibition 0 h [1]	Percentage of motility inhibition 24 h [2]	further results
C/C1=C\CC/C(C)=C/CC(C)(C)/C=C/C1 [α-Humulene]	11%	55%	–
Cc1c(C)c2c(c(C)c1O)CC[C@@](C)(CCC[C@H](C)CCC[C@H](C)CCCC(C)C)O2 [α-Vitamin E]	53%	11%	–
CC1=C(/C=C/C(C)=C/C=C/C(C)=C/C=C/C=C(C)/C=C/C=C(\C)C=O)C(C)(C)CCC1 [β-Apo-8'-carotenal]	12%	1%	–
C=C(CCC=C(C)C)[C@@H]1CC=C(C)CC1 [β-Bisabolene]	8%	57%	–
CC1=C(CO)C(C)(C)CCC1 [β-Cyclogeraniol]	15%	48%	–
C=C[C@]1(C)CC[C@@H](C(=C)C)C[C@H]1C(=C)C [β-Elemene]	9% and 7%	–	–
COc1ccc(-c2oc3c4c(cc(O)c3c(=O)c2O)OC(C)(C)CC4)cc1 [β‐Anhydroicaritin]	5%	16%	–
N[C@@H](CCl)C(=O)O [β‐Chloro‐L‐alanine]	27%	7%	–
(+)-Catechin hydrate	12% and 8%	–	–
(+)‐Sparteine	5%	13%	–
(+)‐Sparteine (sulfate pentahydrate)	0%	0%	–
(-)-Huperzine A	–	7% and 15%	–
(±)-Huperzine A	0%	16%	–
(±)‐10‐Hydroxycamptothecin	0%	0%	–
(±)‐Naringenin	0%	18%	–
(‐)‐Alkannin	12%	7%	–
(‐)‐Epicatechin gallate	5%	8%	–
(‐)‐Epigalloca techin	3%	0%	–
(‐)‐Gallocatechin gallate	60%	5%	–

Compound	Percentage of motility inhibition 0 h [1]	Percentage of motility inhibition 24 h [2]	further results
(‐)‐Sparteine	0%	4%	–
(−)-Myrtenal	21%	14%	–
Alisol B 23-acetate	0%	2%	–
Alpinetin	1%	14%	–
Amarogentin	2%	8%	–
Aprotinin	4%	9%	–
Asiaticoside	6%	0%	–
Astragaloside I	13%	23%	–
Avermectin B1 [reference compound]	–	41%	Inhibition (%) 110 μM (0 h): 81 ± 1%; Inhibition (%) 110 μM (24 h): 42 ± 1%
Bacopaside II	7%	9%	–
Bavachinin	0%	2%	–
Benzalkonium chloride	50%	58%	–
Brusatol	48%	37%	–
Bulleyaconitine A	26%	26%	–
Capreomycin (sulfate)	12%	0%	–
Capsaicin β‐D‐glucopyrano side	–	–	Percentage of motility inhibition 0 h (110 µM): 3%; Percentage of motility inhibition 24 h (110 µM): 0%
Clinodiside A	1%	0%	–
Colistin (sulfate)	14%	0%	–
Corylin	25%	15%	–

Reference: article PMC11855827, “High-Throughput Screening of Five Compound Libraries for Anthelmintic Activity and Toxicity Leads to the Discovery of Two Flavonoid Compounds” (International Journal of Molecular Sciences, 2025)
